Results taken from ChEMBL document CHEMBL3286250, “Oxirapentyns F-K from the marine-sediment-derived fungus Isaria felina KMM 4639” (J Nat Prod, 2014).
The source made the active and inactive calls. No cut-off for these calls is given here.

How the values were obtained:
Candida albicans = assay: Antimicrobial activity against Candida albicans KMM 455 by agar diffusion method; type: functional, organism-based
Bacillus subtilis = assay: Antimicrobial activity against Bacillus subtilis KMM 430 by agar diffusion method; type: functional, organism-based
Escherichia coli = assay: Antimicrobial activity against Escherichia coli ATCC 15034 by agar diffusion method; type: functional, organism-based
Staphylococcus aureus = assay: Antimicrobial activity against Staphylococcus aureus ATCC 21027 by agar diffusion method; type: functional, organism-based
Pseudomonas aeruginosa = assay: Antimicrobial activity against Pseudomonas aeruginosa KMM 433 by agar diffusion method; type: functional, organism-based
[1] = Cytotoxicity against CD1 mouse erythrocytes up to 100 uM after 46 hrs by MTS assay; type: cell-based; details: erythrocyte
THP-1 = assay: Cytotoxicity against human THP1 cells after 46 hrs by MTS assay; type: functional, cell-based; details: THP-1, 46 h
HL-60 = assay: Cytotoxicity against human HL60 cells after 46 hrs by MTS assay; type: functional, cell-based; details: HL-60, 46 h
[2] = Cytotoxicity against CD1 mouse splenocytes up to 100 uM after 46 hrs by MTS assay; type: cell-based; details: splenocyte

| Compound | Activity (Candida albicans) | Activity (Bacillus subtilis) | Activity (Escherichia coli) | Activity (Staphylococcus aureus) | Activity (Pseudomonas aeruginosa) | Activity [1] | IC50 (THP-1) | IC50 (HL-60) | Activity [2] |
| --- | --- | --- | --- | --- | --- | --- | --- | --- | --- |
| C=C(C)C#C[C@@]1(O)[C@@H](O)[C@H](O)[C@]2(OC(C)=O)C[C@@H](O)C(C)(C)O[C@H]2[C@@H]1O | inactive | inactive | inactive | inactive | inactive | – | – | – | – |
| CC(=O)O[C@@H]1C[C@]23O[C@H]2C2=C(C(=O)CC(C)(C)O2)[C@@H](O)[C@@H]3OC1(C)C | inactive | inactive | inactive | inactive | inactive | – | – | – | – |
| C=C(C)C#C[C@]1(O)[C@@H](O)[C@@H]2OC(C)(C)[C@H](OC(C)=O)C[C@@]23O[C@H]3[C@@H]1O | inactive | inactive | inactive | inactive | inactive | – | – | – | – |
| C=C(C)C#C[C@]12O[C@H]1[C@@H]1OC(C)(C)[C@H](OC(C)=O)C[C@@]1(O)[C@@H](O)[C@@H]2O | inactive | inactive | inactive | inactive | inactive | – | – | – | – |
| COC(=O)/C=C/C(O)=C1\COCC(OC(C)=O)=C1C(=O)OC | inactive | inactive | inactive | inactive | inactive | Non-toxic | 37.4 µM | 4.3 µM | Non-toxic |
